Format in all cases: functional
For assay [1], the system named is Staphylococcus aureus. The assay is described as follows: Antibacterial activity against methicillin-resistant Staphylococcus aureus N315 after 24 hrs by two fold serial dilution method. Particulars: N315, 24 h.
The subject of the next assay is Enterococcus faecalis. The assay is described as follows: Antibacterial activity against Enterococcus faecalis after 24 hrs by two fold serial dilution method.
The subject of assay [2] is Staphylococcus aureus. The assay can be described thus: Antibacterial activity against Staphylococcus aureus after 24 hrs by two fold serial dilution method.
Assay [3] concerns Staphylococcus aureus. The assay is described as follows: Antibacterial activity against Staphylococcus aureus ATCC 25923 after 24 hrs by two fold serial dilution method. The conditions noted are these: ATCC 25923, 24 h.
Assay [4] deals with Staphylococcus aureus. The assay can be described thus: Antibacterial activity against Staphylococcus aureus ATCC 29213 after 24 hrs by two fold serial dilution method. Particulars: ATCC 29213, 24 h.
The subject of a further assay is Klebsiella pneumoniae. The assay is described as follows: Antibacterial activity against Klebsiella pneumoniae after 24 hrs by two fold serial dilution method.
The test system of assay [5] is Escherichia coli. The assay is described as follows: Antibacterial activity against Escherichia coli after 24 hrs by two fold serial dilution method.
The test system of assay [6] is Pseudomonas aeruginosa. The assay can be described thus: Antibacterial activity against Pseudomonas aeruginosa after 24 hrs by two fold serial dilution method.
The next assay concerns Acinetobacter baumannii. The assay is described as follows: Antibacterial activity against Acinetobacter baumannii after 24 hrs by two fold serial dilution method.
Assay [7] relates to Pseudomonas aeruginosa. The assay is described as follows: Antibacterial activity against Pseudomonas aeruginosa ATCC 27853 after 24 hrs by two fold serial dilution method. Particulars: ATCC 27853, 24 h.
The test system of assay [8] is Escherichia coli. The assay can be described thus: Antibacterial activity against Escherichia coli ATCC 25922 after 24 hrs by two fold serial dilution method. Particulars: ATCC 25922, 24 h.
Assay [9] has as its system Candida albicans. The assay can be described thus: Antifungal activity against Candida albicans after 24 hrs by two fold serial dilution method.
The subject of another assay is Candida tropicalis. The assay is described as follows: Antifungal activity against Candida tropicalis after 24 hrs by two fold serial dilution method.
For the next assay, the system named is Aspergillus fumigatus. The assay can be described thus: Antifungal activity against Aspergillus fumigatus after 24 hrs by two fold serial dilution method.
The test system of assay [10] is Candida albicans. The assay can be described thus: Antifungal activity against Candida albicans ATCC 90023 after 24 hrs by two fold serial dilution method. Particulars: ATCC 90023, 24 h.
The subject of another assay is Candida parapsilosis. The assay can be described thus: Antifungal activity against Candida parapsilosis ATCC 22019 after 24 hrs by two fold serial dilution method. The conditions noted are these: ATCC 22019, 24 h.

The values below come from ChEMBL document CHEMBL4219183, “Novel purine benzimidazoles as antimicrobial agents by regulating ROS generation and targeting clinically resistant Staphylococcus aureus DNA groove” (Bioorg Med Chem Lett, 2018).

In brackets after ≈: the same amount, converted by molar mass.

Usually MIC stands for the lowest concentration that inhibits growth of the organism. Low readings indicate a more susceptible organism, high ones a less susceptible organism. By MIC80 is commonly meant an inhibitory concentration at the 80% level, which refers to growth in some studies and to a panel of isolates in others. A higher MIC80 goes with weaker potency.

In the case of `Cc1cc2ncn(CCn3cnc4c(N5CCOCC5)ncnc43)c2cc1C`, the MIC against Staphylococcus aureus [1] was 256 µg/mL (≈ 678 µM); in the assay on Enterococcus faecalis it was 128 µg/mL (≈ 339 µM); with Staphylococcus aureus [2], 256 µg/mL (≈ 678 µM); in the assay with Staphylococcus aureus [3] it was 256 µg/mL (≈ 678 µM); against Staphylococcus aureus [4], 128 µg/mL (≈ 339 µM); in the assay with Klebsiella pneumoniae, 64 µg/mL (≈ 170 µM). The MIC in the assay with Escherichia coli [5] is 256 µg/mL (≈ 678 µM); with Pseudomonas aeruginosa [6] it was 32 µg/mL (≈ 84.8 µM); with Acinetobacter baumannii it was 256 µg/mL (≈ 678 µM); in the assay with Pseudomonas aeruginosa [7], 128 µg/mL (≈ 339 µM); with Escherichia coli [8], 256 µg/mL (≈ 678 µM). Moreover, the MIC80 against Candida albicans [9] was found to be 256 µg/mL (≈ 678 µM); in the assay with Candida tropicalis, 128 µg/mL (≈ 339 µM); against Aspergillus fumigatus it was 128 µg/mL (≈ 339 µM); in the assay with Candida albicans [10], 128 µg/mL (≈ 339 µM); with Candida parapsilosis it was 256 µg/mL (≈ 678 µM).
For the compound `Clc1cccc(Cn2c(Cn3cnc4c(N5CCOCC5)ncnc43)nc3ccccc32)c1`, the MIC worked out at 512 µg/mL (≈ 1110 µM) with Staphylococcus aureus [1]; 128 µg/mL (≈ 278 µM) against Enterococcus faecalis; 256 µg/mL (≈ 557 µM) in the assay on Staphylococcus aureus [2]; 128 µg/mL (≈ 278 µM) in the assay on Staphylococcus aureus [3]; 128 µg/mL (≈ 278 µM) against Staphylococcus aureus [4]; 128 µg/mL (≈ 278 µM) in the assay on Klebsiella pneumoniae. The MIC was 256 µg/mL (≈ 557 µM) in the assay on Escherichia coli [5]; 512 µg/mL (≈ 1110 µM) with Pseudomonas aeruginosa [6]; 256 µg/mL (≈ 557 µM) in the assay with Acinetobacter baumannii; 256 µg/mL (≈ 557 µM) in the assay on Pseudomonas aeruginosa [7]; 256 µg/mL (≈ 557 µM) with Escherichia coli [8]. Further, the MIC80 against Candida albicans [9] was 512 µg/mL (≈ 1110 µM); in the assay with Candida tropicalis, 128 µg/mL (≈ 278 µM); against Aspergillus fumigatus, 256 µg/mL (≈ 557 µM); against Candida albicans [10], 128 µg/mL (≈ 278 µM); against Candida parapsilosis it was 512 µg/mL (≈ 1110 µM).
As to `c1ccc(Cn2c(Cn3cnc4c(N5CCOCC5)ncnc43)nc3ccccc32)cc1`, the minimal inhibitory concentration (MIC) was 256 µg/mL (≈ 602 µM) with Staphylococcus aureus [1]; 128 µg/mL (≈ 301 µM) with Enterococcus faecalis; 512 µg/mL (≈ 1200 µM) in the assay on Staphylococcus aureus [2]; 512 µg/mL (≈ 1200 µM) with Staphylococcus aureus [3]; 256 µg/mL (≈ 602 µM) with Staphylococcus aureus [4]; 128 µg/mL (≈ 301 µM) in the assay on Klebsiella pneumoniae. Besides, the MIC against Escherichia coli [5] was found to be 256 µg/mL (≈ 602 µM); in the assay on Pseudomonas aeruginosa [6], 256 µg/mL (≈ 602 µM); with Acinetobacter baumannii, 256 µg/mL (≈ 602 µM); in the assay with Pseudomonas aeruginosa [7], 128 µg/mL (≈ 301 µM); against Escherichia coli [8], 256 µg/mL (≈ 602 µM). For the same compound, the MIC80 was 256 µg/mL (≈ 602 µM) in the assay with Candida albicans [9]; 128 µg/mL (≈ 301 µM) in the assay on Candida tropicalis; 512 µg/mL (≈ 1200 µM) in the assay on Aspergillus fumigatus; 256 µg/mL (≈ 602 µM) against Candida albicans [10]; 512 µg/mL (≈ 1200 µM) in the assay with Candida parapsilosis.
As to `CC(=O)c1nc2ccccc2n1CCn1cnc2c(N3CCOCC3)ncnc21`, the MIC was 256 µg/mL (≈ 654 µM) against Staphylococcus aureus [1]; 64 µg/mL (≈ 164 µM) in the assay with Enterococcus faecalis; 32 µg/mL (≈ 81.8 µM) against Staphylococcus aureus [2]; 64 µg/mL (≈ 164 µM) in the assay with Staphylococcus aureus [3]; 128 µg/mL (≈ 327 µM) in the assay with Staphylococcus aureus [4]; 32 µg/mL (≈ 81.8 µM) with Klebsiella pneumoniae. Further, the MIC turned out to be 128 µg/mL (≈ 327 µM) in the assay with Escherichia coli [5]; 8 µg/mL (≈ 20.4 µM) with Pseudomonas aeruginosa [6]; 64 µg/mL (≈ 164 µM) in the assay with Acinetobacter baumannii; 32 µg/mL (≈ 81.8 µM) against Pseudomonas aeruginosa [7]; 128 µg/mL (≈ 327 µM) in the assay on Escherichia coli [8]. For the same compound, the MIC80 in the assay on Candida albicans [9] came to 256 µg/mL (≈ 654 µM); with Candida tropicalis it was 256 µg/mL (≈ 654 µM); in the assay on Aspergillus fumigatus, 128 µg/mL (≈ 327 µM); against Candida albicans [10], 128 µg/mL (≈ 327 µM); with Candida parapsilosis, 512 µg/mL (≈ 1310 µM).
With `CCCCCCCCCCCCCCCCn1c(Cn2cnc3c(N4CCOCC4)ncnc32)nc2ccccc21`, the MIC against Staphylococcus aureus [1] came out at 512 µg/mL (≈ 915 µM); against Enterococcus faecalis it was 32 µg/mL (≈ 57.2 µM); against Staphylococcus aureus [2] it was 64 µg/mL (≈ 114 µM); with Staphylococcus aureus [3], 256 µg/mL (≈ 457 µM); against Staphylococcus aureus [4], 256 µg/mL (≈ 457 µM); in the assay with Klebsiella pneumoniae, 128 µg/mL (≈ 229 µM). Besides, the MIC is 512 µg/mL (≈ 915 µM) in the assay with Escherichia coli [5]; 512 µg/mL (≈ 915 µM) in the assay on Pseudomonas aeruginosa [6]; 256 µg/mL (≈ 457 µM) in the assay on Acinetobacter baumannii; 256 µg/mL (≈ 457 µM) with Pseudomonas aeruginosa [7]; 256 µg/mL (≈ 457 µM) in the assay on Escherichia coli [8]. Besides, the MIC80 worked out at 128 µg/mL (≈ 229 µM) with Candida albicans [9]; 128 µg/mL (≈ 229 µM) with Candida tropicalis; 256 µg/mL (≈ 457 µM) in the assay on Aspergillus fumigatus; 512 µg/mL (≈ 915 µM) with Candida albicans [10]; 128 µg/mL (≈ 229 µM) against Candida parapsilosis.
Regarding `C=CCn1c(Cn2cnc3c(N4CCOCC4)ncnc32)nc2ccccc21`, the MIC in the assay on Staphylococcus aureus [1] was 512 µg/mL (≈ 1360 µM); against Enterococcus faecalis, 128 µg/mL (≈ 341 µM); in the assay with Staphylococcus aureus [2], 256 µg/mL (≈ 682 µM); against Staphylococcus aureus [3], 256 µg/mL (≈ 682 µM); with Staphylococcus aureus [4], 128 µg/mL (≈ 341 µM); with Klebsiella pneumoniae it was 128 µg/mL (≈ 341 µM). Further, the MIC with Escherichia coli [5] amounted to 256 µg/mL (≈ 682 µM); in the assay with Pseudomonas aeruginosa [6] it was 256 µg/mL (≈ 682 µM); against Acinetobacter baumannii it was 128 µg/mL (≈ 341 µM); with Pseudomonas aeruginosa [7], 128 µg/mL (≈ 341 µM); in the assay on Escherichia coli [8], 256 µg/mL (≈ 682 µM). The MIC80 against Candida albicans [9] came out at 512 µg/mL (≈ 1360 µM); in the assay with Candida tropicalis, 256 µg/mL (≈ 682 µM); in the assay on Aspergillus fumigatus, 128 µg/mL (≈ 341 µM); with Candida albicans [10], 128 µg/mL (≈ 341 µM); in the assay with Candida parapsilosis, 32 µg/mL (≈ 85.2 µM).
Consider `OC(Cn1cncn1)(Cn1cncn1)c1ccc(F)cc1F` [FLUCONAZOLE], for which the MIC80 stood at 64 µg/mL (≈ 209 µM) against Candida albicans [9]; 256 µg/mL (≈ 836 µM) in the assay with Candida tropicalis; 256 µg/mL (≈ 836 µM) in the assay on Aspergillus fumigatus; 1 µg/mL (≈ 3.27 µM) against Candida albicans [10]; 2 µg/mL (≈ 6.53 µM) with Candida parapsilosis.
